The source made the active and inactive calls.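 Rule for the calls: active = compounds giving half or more protection of infected cells from virus-caused growth loss, again on retest; inactive = the rest.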 Where a SMILES comes first, the peptide text is derived from it. The star is where a group is joined. Boc = CC(C)(C)OC(=O)*
Test system: CEM cells HIV-1 protection, formazan growth assay
Experiment: NCI AIDS Antiviral Assay
Settings: for IC50: measured here: growth of uninfected CEM cells
Method in brief: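 Protection of CEM cells against HIV-1 was scored from cell growth (soluble formazan) across five concentrations, with parallel uninfected cells. Lack of protection may reflect toxicity.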

Structure (SMILES) | EC50 [µM] | IC50 [µM] | outcome
COc1cc2c(oc(=O)c3c4oc([Si](C)(C)C)cc4cc(OC)c23)c2cccc(OCc3ccccc3)c12 | > 0.501 | > 0.501 | 
O=c1[nH]c(=S)[nH]c2nc[nH]c12 | > 200 | > 200 | 
CC1NOC(=O)C1N=Nc1ccc(Cl)cc1Cl (stereo unspecified) | > 36.3 | > 36.3 | 
CN/N=C(/Cc1occc(=O)c1O)C(=O)Nc1ccc(C)c(C)c1 | > 288 | > 288 | 
Cc1nc(N)c2cnn(C)c2n1 | > 1510 | 708 | 
COc1c(C)c(C/C=C(\C)CC/C=C(\C)CC/C=C(\C)CC/C=C(\C)CCC=C(C)C)c(OC)c(OC)c1OC | > 200 | 31.6 | 
CCCC/C=C/C/C=C/CCCCCCCCC(=O)OCC1CCCN2CCCCC12 (stereo unspecified) | > 200 | 7.94 | 
OC(C(c1ccccc1)c1ccccn1)(C(F)(F)F)C(F)(F)F (stereo unspecified) | > 200 | > 200 | 
O=C(CN1CCOCC1)c1ccc2c(c1)oc(=O)n2CCN1CCCC1 | > 200 | 95.5 | 
CCOC(=O)COc1ccc(C[C@H](NC(=O)O[C@H]2CCOC2)[C@H](O)CN(CC(C)C)S(=O)(=O)c2ccc(N)cc2)cc1 | 0.0589 | 64.6 | 
CCOC(=O)/C(Br)=C/SCCC(=O)O | > 891 | 174 | 
OC[C@@H]1CC#C/C=C\C#CC[C@@H]1CO |  |  | inactive
Cc1nc(OCc2ccccc2)c2ncn(CCO)c2n1 | > 200 | > 200 | 
CC(=O)NNc1nc(C)c(C(/C=C/c2ccccc2O)=N/N=C(N)N)s1 | > 89.1 | > 89.1 | 
CCOC(=O)c1ccc(NC(=O)Nc2ccc(Cl)cn2)cc1 | > 200 | > 200 | 
CC[C@@]1(O)C(=O)OCc2c1cc1n(c2=O)Cc2cc3c(CN(C)C)c(O)ccc3nc2-1 |  |  | inactive
CC(C)C(NC(=O)OC(C)(C)C)C(=O)N1CCCC1C(=O)O (stereo not drawn) (Boc-Val-Pro-OH; configuration not given here) | > 200 | > 200 | 
O=C(CC(c1ccccc1)C(C(=O)c1ccncc1)C(CC(=O)c1ccncc1)c1ccccc1)c1ccncc1 (stereo unspecified) | > 200 | > 200 | 
C[N+](C)([O-])CCC=C1c2ccccc2CCc2ccccc21 | > 200 | 105 | 
CC1=CC(=O)/C(=C/N2CCNC2=S)C(=O)O1 | > 200 | > 200 | 
CC1=NOC(=O)/C1=C/c1ccccc1O | > 178 | > 178 | 
CC(C)(CO)C(O)C(=O)NCCS(=O)(=O)O (stereo unspecified) | > 200 | > 200 | 

Structure (SMILES) | EC50 [µM] | IC50 [µM] | outcome
O=c1c(-c2ccc(O)c(O)c2)coc2cc(O)c(O)cc12 | > 200 | 24.5 | 
CCC1CN(C(=O)c2ccccc2)C(Cc2c[nH]c3ccccc23)C(=O)C1CC(=O)OC (stereo unspecified) | > 200 | 79.4 | 
Nc1c(Cl)ncnc1N[C@@H]1C[C@H]1CO | > 200 | > 200 | 
COc1cc(C2SC(N)=Nc3c2c(C)nn3C(=O)c2ccc(Cl)cc2)ccc1O (stereo unspecified) | > 200 | > 200 | 
O=C(CC(=O)N1N=C(n2ccc3ccccc32)CC1c1ccccc1)Nc1cccc(Cl)c1 (stereo unspecified) |  |  | inactive
COc1cccc(NC(=O)CSc2nnc(-c3ccc(N=Cc4ccc(Cl)cc4)cc3)o2)c1 | > 75.9 | 25.1 | 
O=C1NC23CC=CCC12CCC3 (stereo unspecified) | > 1230 | > 1230 | 
CC1(C)OP23(NC(=O)OC2(C(F)(F)F)c2ccccc2O3)OC1(C)C (stereo unspecified) | > 245 | > 245 | 
N#CC(C#N)=C(N)/C(C#N)=C/c1cc(O)c(O)c(Br)c1 | > 77.6 | > 77.6 | 
OC1(c2ccccc2)c2ccccc2CCC1Br (stereo unspecified) | > 200 | 56.2 | 
COC(=O)/C(=N/NC(N)=O)C(C(=O)OC)C(=O)C(=O)Nc1ccc(Cl)cc1 (stereo unspecified) |  |  | inactive
O=C(NC(=S)Nc1ccc(Cl)c(Cl)c1)c1cccc([N+](=O)[O-])c1 | > 200 | 17 | 
C[C@]12CC[C@H](O)CC1=CCC1C2CC[C@@]2(C)C1CC[C@@H]2COS(=O)(=O)O (stereo partly specified) | > 61.7 | > 61.7 | 
Brc1ccc(-c2cc3c(cc2C2SCCS2)OCO3)cc1 | > 67.6 | > 67.6 | 
O=C(NNC1=NCCN1)c1ccco1 | > 200 | > 200 | 
O=C(O)c1cccc(Nc2c(C(=O)O)cccc2[N+](=O)[O-])c1 | > 200 | 6.31 | 
CC1=NOC(C)(O)/C1=N/O (stereo unspecified) | > 200 | 158 | 
O=S(=O)(O)c1ccc2c(c1)NN(c1ccc(/C=C/c3ccc(N=Nc4ccc(/C=C/c5ccc(N6Nc7ccc(S(=O)(=O)O)cc7N6)cc5S(=O)(=O)O)c(S(=O)(=O)O)c4)cc3S(=O)(=O)O)c(S(=O)(=O)O)c1)N2 | 12.3 | 123 | 
O=P1(c2ccccc2)C(c2ccccc2)CCC1c1ccccc1 (stereo unspecified) | > 200 | 85.1 | 
N#Cc1c(-c2ccco2)cc(-c2ccc(NCc3nc4ccccc4[nH]3)cc2)nc1N | > 12.9 | > 12.9 | 
O=C(CC1C=CCS1(=O)=O)NCc1ccccc1 (stereo unspecified) | > 97.7 | > 97.7 | 
Cc1[se]c(N)nc1-c1ccccc1 |  |  | inactive

Structure (SMILES) | EC50 [µM] | IC50 [µM] | outcome
O=c1c2ncn(C3CC(O)C(CO)O3)c2nnn1Cc1ccccc1[N+](=O)[O-] (stereo unspecified) | > 200 | > 200 | 
C/C(CC(O)(C(F)(F)F)C(F)(F)F)=N\O | > 200 | > 200 | 
CCOC(=O)C1=C(C)C2C3C(=O)NC(=O)C3C1(C)C1C(=O)NC(=O)C21 (stereo unspecified) | > 724 | > 724 | 
O=c1/c(=C/c2cccc3ccccc23)sc2nc3ccccc3n12 | > 30.2 | > 30.2 | 
O=C1[C@H]2C(c3ccccc3)=NN(C(=O)c3ccccc3)[C@H]2C(=O)N1c1ccccc1 |  |  | inactive
NC(=S)Nc1[nH]c(=S)nc2c1c(-c1ccccc1)cn2C(=O)c1ccccc1 | > 25.1 | > 25.1 | 
CCOc1ccc(/C=C\c2ccnc3ccccc23)cc1OCC | 0.0631 | 38 | 
C[C@H](C/C=C/C(C)(C)O)[C@H]1CC[C@@]2(C)[C@@H]3CC[C@H]4C(C)(C)[C@@H](O)CC[C@@]45C[C@@]35CC[C@]12C | > 200 | 4.68 | 
CC1=CC2c3c(O)cc(-c4cc5ccc(O)cc5o4)cc3OC3(c4ccc(O)cc4O)Oc4cc(O)ccc4[C@H](C1)C23 (stereo partly specified) | > 22.9 | 2.04 | 
O=C1C(=O)c2ccccc2C(O)=C1Nc1ccc(Cl)cc1 |  |  | inactive
CC1=NOCC(=O)N1 | > 2190 | > 2190 | 
O=[N+]([O-])C(C(Cl)=C(Cl)Cl)=C(N1CCCCC1)N1CCCCC1 | > 200 | 186 | 
O=c1ccn(CC2(CO)CC(Cc3ccccc3)C2)c(=O)[nH]1 (stereo unspecified) | > 200 | > 200 | 
CC[C@@]1(O)C(=O)OCc2c1cc1n(c2=O)Cc2cc3cc4c(cc3nc2-1)OCO4 | > 0.002 | 0.000331 | 
Brc1csnn1 | > 200 | > 200 | 
C=C1C(=O)OC2/C=C(\CO)C(OC(C)=O)CC(O)/C(C)=C/C(OC(=O)C(C)CC)C12 (stereo unspecified) |  |  | inactive
CCCCCCCCCCCCCCCCCC(=O)OCC(C[As](=O)(O)O)OC(=O)CCCCCCCCCCCCCCCCC (stereo unspecified) | > 17.8 | > 17.8 | 
CN(C)CCCN=C(N)CSP(=O)(O)O | > 200 | 32.4 | 
CC(C)(C)OC(=O)N(CCCCNC(=O)c1ccccc1)CCCNC(=O)c1ccccc1 | > 200 | 45.7 | 
CCOC(=O)/C=C\n1c(=O)cc(C)c2ccccc21 | > 200 | > 200 | 
CC(C)=CCC/C(C)=C/CC/C(C)=C/OP(=O)(O)OP(=O)(O)O | > 162 | > 162 | 
O=C(Cc1ccccc1)NN1C(=O)/C(=C\c2ccccc2O)SC1=Nc1ccccc1 | > 219 | 174 | 

Structure (SMILES) | EC50 [µM] | IC50 [µM] | outcome
Cc1cc(N(CCC#N)CCC#N)ccc1/C(N=Nc1ccc([N+](=O)[O-])cc1)=N\NC(=O)c1cc(Cl)ccc1C(=O)c1ccccc1 | > 200 | 11.2 | 
COc1cc(OC)cc(C(=O)CC(=O)c2cc(OC)cc(OC)c2)c1 | > 20.9 | 15.5 | 
CCc1c(C)c(SC)n(C)c(=O)c1C#N | > 200 | 69.2 | 
O=C(O)C1CCCN1C(=O)c1cc(Cl)ccn1 (stereo unspecified) | > 200 | > 200 | 
C=C1C2CCC3C(CCC4C35CCC[C@]4(C)CN3CCO[C@H]35)(C2)[C@@H]1O (stereo partly specified) |  |  | inactive
NC(Cc1ccc(O)cn1)C(=O)NC(C(=O)O)c1ccccc1 (stereo unspecified) | > 200 | > 200 | 
Cc1nn(C(=O)CC(=O)Nc2ccccc2Cl)c(C)c1N=Nc1ccccc1F |  |  | inactive
Nc1nc(N)nc(NCCSSCCNc2nc(N)nc(N)n2)n1 | > 200 | 97.7 | 
Cc1nc(NS(=O)(=O)c2ccc(NC(=O)c3ccccc3SC(=O)CCCC[n+]3ccccc3)cc2)oc1C | 16.6 | 52.5 | 
CCOC(=O)/C(=C/c1ccc(F)cc1)C(=O)c1ccccc1 | > 17.4 | > 17.4 | 
O=C(NC1CCCCC1)NC12CC3CC(CC(F)(C3)C1)C2 | > 45.7 | > 45.7 | 
COc1ccc(C2OC(c3ccncc3)=NN2C)cc1OC (stereo unspecified) | > 200 | 87.1 | 
O=C(C/C(=N\NC(=O)C[n+]1ccccc1)C(=O)Nc1nc2ccc([N+](=O)[O-])cc2s1)CC(c1ccccc1)c1c(O)c2ccccc2oc1=O (stereo unspecified) | > 2.75 | > 2.75 | 
Cn1cnnc1Sc1c([N+](=O)[O-])ncn1C | > 1050 | 9.12 | 
CC(=O)Oc1c(OC(C)=O)c(-c2ccc(O)c(O)c2)c(O)c(O)c1-c1ccc(O)cc1 | > 200 | 27.5 | 
COc1ccc(N2C(=O)C3c4[nH]c5cc(C)ccc5c4C4CCC(C(C)(C)C)CC4C3C2=O)cc1 (stereo unspecified) | > 200 | 105 | 
CC(C)(C)c1cc(C(C)(C)C)c(P=C(Cl)Cl)c(C(C)(C)C)c1 (stereo unspecified) | > 100 | > 100 | 
COC1/C=C/OC2(C)Oc3c(C)c(O)c4c(O)c(cc(OCC(=O)N5CCOCC5C)c4c3C2=O)NC(=O)/C(C)=C/C=C/C(C)C(O)C(C)C(O)C(C)C(OC(C)=O)C1C (stereo unspecified) | > 200 | 36.3 | 
O=S(=O)(F)c1ccccc1C[P+](c1ccccc1)(c1ccccc1)c1ccccc1 | > 200 | 17.8 | 
NCCC1(N)CCNCC1 |  |  | inactive

From PubChem BioAssay AID179 (DTP/NCI, 2004)
